In patent publication US20050222266A1, “2-indanylamino derivatives for the therapy of chronic pain” (priority 2002, published 2005):
Where a name gives a salt, the structure may show the parent alone.

Experiments:
[1] = tested on: mechanical hyperalgesia in streptozotocin (STZ)-induced diabetic neuropathy; assay: streptozotocin-induced diabetic neuropathy, paw pressure test; type: in vivo, rat; settings: for Nociceptive threshold: 60 minutes before measurement; for % variation of the nociceptive threshold: vs vehicle-treated diabetic group
Procedure: The objective of this study was to assess the antinociceptive effects of CHF 3381 (25, 50 and 100 mg/kg p.o.) and gabapentin (100 mg/kg p.o) on mechanical hyperalgesia in streptozotocin (STZ)-induced diabetic neuropathy in rats. Diabetes was induced by intraperitoneal injection of STZ (75 mg/kg), and 23 days later its presence was confirmed by measuring of tail vein blood glucose levels and only rats with […] were included in the study.
After 25 days, distilled water, CHF3381 and gabapentin were administered 60 minutes before pain measurement. The nociceptive threshold was evaluated in all groups using a mechanical nociceptive stimulation (paw pressure test).
An increasing pressure (grams of contact pressure) was applied onto the both hind paws of the animal until a nociceptive reaction (vocalisation or paw withdrawal) was determined. The results, expressed as the percentage variation of the nociceptive threshold calculated respect the mean value of the vehicle-treated diabetic group, are reported in Table 2.

[2] = tested on: formalin-induced licking and flinching; assay: mice paw formalin test, acute treatment; type: in vivo; settings: for Late phase licking/flinching time: 10 to 40 min; for Early phase licking/flinching time: first 5 min
Procedure: The mice paw formalin test was performed as described by Wheeler-Aceto et al. (Psychopharmacology 104:35-44, 1991). Briefly, the day before the formalin injection, mice were placed individually into clear plastic cylinders for 30 minutes of adaptation. The day of testing 20 μl of 1% formalin was injected into the plantar surface of the left hind paw and the animals were again placed into the plastic cylinder for the behavioural observation. The amount of time, in seconds, the animals spent licking and flinching (L/F) the injected paw for the first 5 min (early phase), and then from 10 to 40 min(late phase) after formalin injection, was used as measurement of intensity of pain. CHF 3381 10-100 mg/kg i.p. and 25-200 mg/kg p.o. or the corresponding vehicles, were administered 15 and 30 min before formalin injection, respectively.

[3] = tested on: ion channel associated to NMDA receptors; assay: inhibiting activity on NMDA-associated ion channel; type: biochemical
rotarod test, mice = settings: mouse, in vivo, 15 min before test
Procedure: The side-effect profile of CHF 3381 was then evaluated in the rotarod test both in mice and rats. The day before the execution of the test, mice and rats were trained to maintain their equilibrium on the test apparatus. For mice, training consisted of 3 subsequent 2 min attempts on a rod rotating from 4.5 r.p.m. to 16.5 r.p.m.; for rats, of 3 subsequent 1 min attempts at 8 rpm (Kinnard and Carr, 1957). The morning of the test day, mice and rats were again tested on the rotarod and only animals able to maintain their equilibrium on the rod were retained for the experimental procedure. CHF 3381 was administered p.o. or i.p. to groups of at least 8 animals 15 min (time of peak effect for neurotoxicity) before the execution of the test. All controls received the corresponding vehicle. The number of mice falling during a 2-min test period and the number of rats falling for 3 subsequent 1-min attempts were used for the calculation of the respective doses at which 50% of the animals display neurotoxicity (TD50).

NMDA receptors channels = settings: displacement of [3H]-TPC; cited from earlier work
[4] = tested on: thermal hyperalgesia produced by CCI; assay: Chronic Constriction Injury (CCI) model, thermal hyperalgesia (plantar test); type: in vivo; settings: rat CCI
Procedure: The potential analgesic activity of CHF 3381 was evaluated the Chronic Constriction Injury (CCI) model described by Bennett et al (Pain 1988, 33: 87-107). Briefly, the rat left common sciatic nerve was exposed, and proximal to the sciatic trifurcation about 10 mm of nerve was freed of adhering tissue and four ligatures (4.0 silk ) were loosely tied around it with about 1 mm of spacing.
Two tests of hind limb withdrawal to thermal and cold stimuli were employed in this study. Each test was repeated on both the operated hind paw and the controlateral hind paw.
Rats were tested for thermal hyperalgesia using a commercial available analgesimeter (Plantar test, Ugo Basile, Comerio Italy) by applying heat stimulus (50 W, 8V) directed onto the plantar surface of each hind paw, and the paw withdrawal latency (s) was determined. Four latency measurements were taken for each hind paw and averaged. The apparatus was calibrated to give a paw withdrawal latency of approximately 10 sec. The results were expressed as the difference score (DS) by subtracting the latency of the control side from the latency of the ligated side; if this difference was less than 1.5 sec, the animal was not included in the experimental groups. CHF 3381 (10-30-60 mg/kg intraperitoneally -i.p.-) or vehicle were administered to animals 14-21 days after ligation and hyperalgesia tested 1, 2 and 4 hours after treatment. CHF3381 reversed the thermal hyperalgesia produced by CCI in a dose- and time-dependent manner with a maximum effect at 60 min after the administration.

rat MES model = settings: cited from earlier work

For NC(=O)CNC1Cc2ccccc2C1 [CHF 3381, N-2(indanyl)-glicinamide hydrochloride], the Nociceptive threshold ([1]; 25 mg/kg p.o.) was 250.0 ± 17.0 g, the “% variation of the nociceptive threshold” value ([1]; 25 mg/kg p.o.) was 83% and the Nociceptive threshold ([1]; 50 mg/kg p.o.) was 319.2 ± 48.5 g. For the same compound, the “% variation of the nociceptive threshold” value ([1]; 50 mg/kg p.o.) was 134%, the Nociceptive threshold ([1]; 100 mg/kg p.o.) was 287.5 ± 20.3 g and the “% variation of the nociceptive threshold” value ([1]; 100 mg/kg p.o.) was 110%. For the same compound, the “Late phase licking/flinching time” value ([2]; 10 mg/kg i.p.) was 165 ± 26 s, the “Early phase licking/flinching time” value ([2]; 10 mg/kg i.p.) was 95 ± 8 s and the “Late phase licking/flinching time” value ([2]; 25 mg/kg p.o.) was 92 ± 25 s. For the same compound, the “Early phase licking/flinching time” value ([2]; 25 mg/kg p.o.) was 99 ± 8 s, the “Late phase licking/flinching time” value ([2]; 30 mg/kg i.p.) was 58 ± 1 s and the “Early phase licking/flinching time” value ([2]; 30 mg/kg i.p.) was 59 ± 9 s. For the same compound, the “Late phase licking/flinching time” value ([2]; 50 mg/kg p.o.) was 30 ± 9 s, the “Early phase licking/flinching time” value ([2]; 50 mg/kg p.o.) was 72 ± 7 s and the “Late phase licking/flinching time” value ([2]; 60 mg/kg i.p.) was 17 ± 5 s. For the same compound, the “Early phase licking/flinching time” value ([2]; 60 mg/kg i.p.) was 32 ± 7 s, the “Late phase licking/flinching time” value ([2]; 100 mg/kg i.p.) was 2 ± 2 s and the “Early phase licking/flinching time” value ([2]; 100 mg/kg i.p.) was 17 ± 4 s. For the same compound, the “Late phase licking/flinching time” value ([2]; 100 mg/kg p.o.) was 23 ± 16 s, the “Early phase licking/flinching time” value ([2]; 100 mg/kg p.o.) was 46 ± 7 s and the “Late phase licking/flinching time” value ([2]; 200 mg/kg p.o.) was 12 ± 10 s. For the same compound, the “Early phase licking/flinching time” value ([2]; 200 mg/kg p.o.) was 47 ± 4 s, the “acute and tonic formalin-induced licking response” value ([2]; mice, 100 mg/kg p.o. and 60 mg/kg i.p.) was “almost completely blocked” and the “inhibiting activity towards ion channel associated to NMDA receptors” value [3] was “inhibiting activity”. For the same compound, the TD50 at 15 min (rotarod test, mice; ip, i.p. administration) was 96 mg/kg, the TD50 at 15 min (rotarod test, mice; oral administration) was 233 mg/kg and the Ki (NMDA receptors channels) was 8.8 µM. The “Hyperalgesia Difference score (DS)” value ([4]; 10 mg/kg i.p.) was 1.41 ± 0.36 s, the “Hyperalgesia Difference score (DS)” value ([4]; 30 mg/kg i.p.) was 0.83 ± 0.35 s and the “Hyperalgesia Difference score (DS)” value ([4]; 60 mg/kg i.p.) was 0.68 ± 0.14 s. The anti-convulsivant activity (rat MES model) was “anti-convulsivant activity”.
